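At the GI50, growth is halved. At the TGI there is no net growth.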
What was measured:
Experiment in all cases: NCI-60 cell line screen, 384-well format
786-0 renal = test system: 786-0 renal
A498 renal = test system: A498 renal
A549 NSCLC = test system: A549 NSCLC
ACHN renal = test system: ACHN renal
BT-549 breast = test system: BT-549 breast
CAKI-1 renal = test system: CAKI-1 renal
COLO 205 colon = test system: COLO 205 colon
DU-145 prostate = test system: DU-145 prostate
EKVX NSCLC = test system: EKVX NSCLC
HCC-2998 colon = test system: HCC-2998 colon
HCT-116 colon = test system: HCT-116 colon
HCT-15 colon = test system: HCT-15 colon
HL-60(TB) leukemia = test system: HL-60(TB) leukemia
HOP-62 NSCLC = test system: HOP-62 NSCLC
HOP-92 NSCLC = test system: HOP-92 NSCLC
HS 578T breast = test system: HS 578T breast
HT29 colon = test system: HT29 colon
IGROV1 ovarian = test system: IGROV1 ovarian
KM12 colon = test system: KM12 colon
LOX IMVI melanoma = test system: LOX IMVI melanoma
M14 melanoma = test system: M14 melanoma
MALME-3M melanoma = test system: MALME-3M melanoma
MCF7 breast = test system: MCF7 breast
MDA-MB-231 breast = test system: MDA-MB-231 breast
MDA-MB-435 melanoma = test system: MDA-MB-435 melanoma
MDA-MB-468 breast = test system: MDA-MB-468 breast
MOLT-4 leukemia = test system: MOLT-4 leukemia
NCI-H226 lung = test system: NCI-H226 lung
NCI-H23 lung = test system: NCI-H23 lung
NCI-H322M lung = test system: NCI-H322M lung
NCI-H460 NSCLC = test system: NCI-H460 NSCLC
NCI-H522 lung = test system: NCI-H522 lung
NCI/ADR-RES ovarian = test system: NCI/ADR-RES ovarian
OVCAR-3 ovarian = test system: OVCAR-3 ovarian
OVCAR-4 ovarian = test system: OVCAR-4 ovarian
OVCAR-5 ovarian = test system: OVCAR-5 ovarian
OVCAR-8 ovarian = test system: OVCAR-8 ovarian
PC-3 prostate = test system: PC-3 prostate
RPMI-8226 leukemia = test system: RPMI-8226 leukemia
RXF 393 renal = test system: RXF 393 renal
SF-268 CNS = test system: SF-268 CNS
SF-295 CNS = test system: SF-295 CNS
SF-539 CNS = test system: SF-539 CNS
SK-MEL-28 melanoma = test system: SK-MEL-28 melanoma
SK-MEL-5 melanoma = test system: SK-MEL-5 melanoma
SK-OV-3 ovarian = test system: SK-OV-3 ovarian
SN12C renal = test system: SN12C renal
SNB-19 CNS = test system: SNB-19 CNS
SNB-75 CNS = test system: SNB-75 CNS
SR leukemia = test system: SR leukemia
SW-620 colon = test system: SW-620 colon
T-47D breast = test system: T-47D breast
TK-10 renal = test system: TK-10 renal
U251 glioblastoma = test system: U251 glioblastoma
UACC-257 melanoma = test system: UACC-257 melanoma
UACC-62 melanoma = test system: UACC-62 melanoma
UO-31 renal = test system: UO-31 renal

## CC(C)C[C@H](NC(=O)[C@H](CCc1ccccc1)NC(=O)CN1CCOCC1)C(=O)N[C@@H](Cc1ccccc1)C(=O)N[C@@H](CC(C)C)C(=O)[C@@]1(C)CO1
786-0 renal
  GI50: < 0.01 µM
  TGI: 0.0165 µM
A498 renal
  GI50: < 0.01 µM
  TGI: 0.0245 µM
A549 NSCLC
  GI50: < 0.01 µM
  TGI: 0.0257 µM
ACHN renal
  GI50: 0.0332 µM
  TGI: 0.109 µM
BT-549 breast
  GI50: < 0.01 µM
  TGI: < 0.01 µM
CAKI-1 renal
  GI50: 0.0176 µM
  TGI: 0.0539 µM
COLO 205 colon
  GI50: 0.0283 µM
  TGI: 0.105 µM
DU-145 prostate
  GI50: < 0.01 µM
  TGI: 0.0195 µM
EKVX NSCLC
  GI50: 0.0131 µM
  TGI: 0.0362 µM
HCC-2998 colon
  GI50: < 0.01 µM
  TGI: 0.014 µM
HCT-116 colon
  GI50: < 0.01 µM
  TGI: < 0.01 µM
HCT-15 colon
  GI50: 0.0239 µM
  TGI: 0.0869 µM
HL-60(TB) leukemia
  GI50: < 0.01 µM
  TGI: < 0.01 µM
HOP-62 NSCLC
  GI50: < 0.01 µM
  TGI: < 0.01 µM
HOP-92 NSCLC
  GI50: 0.0116 µM
  TGI: 0.0243 µM
HS 578T breast
  GI50: < 0.01 µM
  TGI: < 0.01 µM
HT29 colon
  GI50: < 0.01 µM
  TGI: < 0.01 µM
IGROV1 ovarian
  GI50: 0.015 µM
  TGI: 0.0301 µM
KM12 colon
  GI50: < 0.01 µM
  TGI: < 0.01 µM
LOX IMVI melanoma
  GI50: < 0.01 µM
  TGI: < 0.01 µM
M14 melanoma
  GI50: < 0.01 µM
  TGI: 0.0191 µM
MALME-3M melanoma
  GI50: < 0.01 µM
  TGI: 0.0188 µM
MCF7 breast
  GI50: < 0.01 µM
  TGI: 0.0124 µM
MDA-MB-231 breast
  GI50: < 0.01 µM
  TGI: < 0.01 µM
MDA-MB-435 melanoma
  GI50: < 0.01 µM
  TGI: 0.0215 µM
MDA-MB-468 breast
  GI50: < 0.01 µM
  TGI: 0.0161 µM
MOLT-4 leukemia
  GI50: < 0.01 µM
  TGI: < 0.01 µM
NCI-H226 lung
  GI50: < 0.01 µM
  TGI: < 0.01 µM
NCI-H23 lung
  GI50: < 0.01 µM
  TGI: < 0.01 µM
NCI-H322M lung
  GI50: 0.0155 µM
  TGI: 0.0337 µM
NCI-H460 NSCLC
  GI50: 0.0182 µM
  TGI: 0.0336 µM
NCI-H522 lung
  GI50: < 0.01 µM
  TGI: 0.0108 µM
NCI/ADR-RES ovarian
  GI50: 0.422 µM
  TGI: 1.61 µM
OVCAR-3 ovarian
  GI50: < 0.01 µM
  TGI: < 0.01 µM
OVCAR-4 ovarian
  GI50: < 0.01 µM
  TGI: 0.0183 µM
OVCAR-5 ovarian
  GI50: 0.0173 µM
  TGI: 0.0453 µM
OVCAR-8 ovarian
  GI50: 0.0146 µM
  TGI: 0.028 µM
PC-3 prostate
  GI50: 0.0105 µM
  TGI: 0.0233 µM
RPMI-8226 leukemia
  GI50: < 0.01 µM
  TGI: < 0.01 µM
RXF 393 renal
  GI50: < 0.01 µM
  TGI: < 0.01 µM
SF-268 CNS
  GI50: < 0.01 µM
  TGI: < 0.01 µM
SF-295 CNS
  GI50: 0.0132 µM
  TGI: 0.0261 µM
SF-539 CNS
  GI50: < 0.01 µM
  TGI: < 0.01 µM
SK-MEL-28 melanoma
  GI50: 0.0172 µM
  TGI: 0.0368 µM
SK-MEL-5 melanoma
  GI50: < 0.01 µM
  TGI: 0.0216 µM
SK-OV-3 ovarian
  GI50: 0.0141 µM
  TGI: 0.0336 µM
SN12C renal
  GI50: 0.015 µM
  TGI: 0.0291 µM
SNB-19 CNS
  GI50: 0.0123 µM
  TGI: 0.0388 µM
SNB-75 CNS
  GI50: 0.0154 µM
  TGI: 0.0306 µM
SR leukemia
  GI50: < 0.01 µM
  TGI: < 0.01 µM
SW-620 colon
  GI50: < 0.01 µM
  TGI: < 0.01 µM
T-47D breast
  GI50: < 0.01 µM
  TGI: 0.018 µM
TK-10 renal
  GI50: 0.0212 µM
  TGI: 0.054 µM
U251 glioblastoma
  GI50: < 0.01 µM
  TGI: 0.0212 µM
UACC-257 melanoma
  GI50: 0.0146 µM
  TGI: 0.0288 µM
UACC-62 melanoma
  GI50: < 0.01 µM
  TGI: 0.0193 µM
UO-31 renal
  GI50: 0.0359 µM
  TGI: 0.11 µM

— PubChem BioAssay (NCI)
